From ChEMBL document CHEMBL4340530, “Peptide-based covalent inhibitors of MALT1 paracaspase” (Bioorg Med Chem Lett, 2019) come the findings set out here.

In one experiment the test system is OCI-Ly3. The experiment is described as follows: Antiproliferative activity against human OCI-LY3 cells assessed as growth inhibition treated every 48 hrs measured after 96 hrs by CellTiter-Glo assay. The class given is functional. Background: In ATP-based viability assays light output follows the ATP content of the culture.
Experiment [1] concerns the target T1, Calpain1/2 (Homo sapiens) (UniProt P17655+P07384). Briefly: Inhibition of calpain (unknown origin) at 10 uM relative to control. The class given is protein assay.
The target of experiment [2] is Cathepsin B (Homo sapiens) (UniProt P07858). Briefly: Inhibition of cathepsin B (unknown origin) at 10 uM relative to control.
For experiment [3], the target named is T2, Cathepsin K (Homo sapiens) (UniProt P43235).
T2 sequence (whole entry): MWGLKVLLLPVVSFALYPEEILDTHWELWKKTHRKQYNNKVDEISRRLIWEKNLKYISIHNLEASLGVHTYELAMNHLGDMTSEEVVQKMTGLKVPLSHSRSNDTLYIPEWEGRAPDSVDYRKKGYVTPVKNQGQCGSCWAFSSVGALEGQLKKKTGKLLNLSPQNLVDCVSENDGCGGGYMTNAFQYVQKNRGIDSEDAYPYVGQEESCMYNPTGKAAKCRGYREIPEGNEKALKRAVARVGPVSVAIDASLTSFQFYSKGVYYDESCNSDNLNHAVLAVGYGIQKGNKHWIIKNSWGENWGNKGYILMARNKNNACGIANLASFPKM
Briefly: Inhibition of cathepsin K (unknown origin) at 10 uM relative to control.

In experiment [4] the target is Procathepsin L (Homo sapiens) (UniProt P07711). Briefly: Inhibition of cathepsin L (unknown origin) at 10 uM relative to control.
The target in experiment [5] is Cathepsin S (Homo sapiens) (UniProt P25774). The experiment is described as follows: Inhibition of cathepsin S (unknown origin) at 10 uM relative to control.
Experiment [6] has as its target T3, Cathepsin L2 (Homo sapiens) (UniProt O60911).
T3 sequence (whole entry): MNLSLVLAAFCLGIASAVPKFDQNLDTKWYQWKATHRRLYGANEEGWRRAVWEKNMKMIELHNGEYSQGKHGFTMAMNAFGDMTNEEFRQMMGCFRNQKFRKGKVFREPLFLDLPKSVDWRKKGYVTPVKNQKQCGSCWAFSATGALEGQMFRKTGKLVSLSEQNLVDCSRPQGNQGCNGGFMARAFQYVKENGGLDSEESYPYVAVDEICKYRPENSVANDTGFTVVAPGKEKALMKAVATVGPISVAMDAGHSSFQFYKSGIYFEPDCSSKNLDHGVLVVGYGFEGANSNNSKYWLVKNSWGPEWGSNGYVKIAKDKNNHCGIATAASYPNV
The experiment is described as follows: Inhibition of cathepsin V (unknown origin) at 10 uM relative to control.

The target of experiment [7] is Prothrombin (Homo sapiens) (UniProt P00734). Briefly: Inhibition of thrombin (unknown origin) at 10 uM relative to control.
In experiment [8] the target is T4, Trypsin (Homo sapiens) (UniProt P07477+P07478+P35030). The experiment is described as follows: Inhibition of trypsin (unknown origin) at 10 uM relative to control. The class given is protein assay.
For experiment [9], the target named is Tryptase beta-2 (Homo sapiens) (UniProt P20231). Briefly: Inhibition of tryptase b2 (unknown origin) at 10 uM relative to control.
Experiment [10] concerns the target T1, Calpain1/2 (Homo sapiens). The experiment is described as follows: Inhibition of calpain (unknown origin) at 1 uM relative to control. The class given is protein assay.
The target in experiment [11] is Cathepsin B (Homo sapiens) (UniProt P07858). Briefly: Inhibition of cathepsin B (unknown origin) at 1 uM relative to control.
The target in experiment [12] is T2, Cathepsin K (Homo sapiens). The experiment is described as follows: Inhibition of cathepsin K (unknown origin) at 1 uM relative to control.
The target of experiment [13] is Cathepsin S (Homo sapiens) (UniProt P25774). The experiment is described as follows: Inhibition of cathepsin S (unknown origin) at 1 uM relative to control.
Experiment [14] addresses T3, Cathepsin L2 (Homo sapiens). Briefly: Inhibition of cathepsin V (unknown origin) at 1 uM relative to control.
Experiment [15] deals with Prothrombin (Homo sapiens) (UniProt P00734). The experiment is described as follows: Inhibition of thrombin (unknown origin) at 1 uM relative to control.
The target in experiment [16] is T4, Trypsin (Homo sapiens). The experiment is described as follows: Inhibition of trypsin (unknown origin) at 1 uM relative to control. The class given is protein assay.
The target in experiment [17] is Tryptase beta-2 (Homo sapiens) (UniProt P20231). Briefly: Inhibition of tryptase b2 (unknown origin) at 1 uM relative to control.
For experiment [18], the target named is T1, Calpain1/2 (Homo sapiens). The experiment is described as follows: Inhibition of calpain (unknown origin) at 100 nM relative to control. The class given is protein assay.
Experiment [19] addresses Cathepsin B (Homo sapiens) (UniProt P07858). Briefly: Inhibition of cathepsin B (unknown origin) at 100 nM relative to control.
The target of experiment [20] is T2, Cathepsin K (Homo sapiens). The experiment is described as follows: Inhibition of cathepsin K (unknown origin) at 100 nM relative to control.
In experiment [21] the target is Cathepsin S (Homo sapiens) (UniProt P25774). The experiment is described as follows: Inhibition of cathepsin S (unknown origin) at 100 nM relative to control.
In experiment [22] the target is Prothrombin (Homo sapiens) (UniProt P00734). Briefly: Inhibition of thrombin (unknown origin) at 100 nM relative to control.
The target of experiment [23] is T4, Trypsin (Homo sapiens). The experiment is described as follows: Inhibition of trypsin (unknown origin) at 100 nM relative to control. The class given is protein assay.
The target of experiment [24] is Tryptase beta-2 (Homo sapiens) (UniProt P20231). Briefly: Inhibition of tryptase b2 (unknown origin) at 100 nM relative to control.
The target of experiment [25] is Procathepsin L (Homo sapiens) (UniProt P07711). The experiment is described as follows: Inhibition of cathepsin L (unknown origin) at 1 uM relative to control.
Experiment [26] has the same target. Briefly: Inhibition of cathepsin L (unknown origin) at 100 nM relative to control.
Experiment [27] has as its target T3, Cathepsin L2 (Homo sapiens). The experiment is described as follows: Inhibition of cathepsin V (unknown origin) at 100 nM relative to control.
The target of experiment [28] is T5, Mucosa-associated lymphoid tissue lymphoma translocation protein 1 (Homo sapiens) (UniProt Q9UDY8).
T5 sequence (whole entry): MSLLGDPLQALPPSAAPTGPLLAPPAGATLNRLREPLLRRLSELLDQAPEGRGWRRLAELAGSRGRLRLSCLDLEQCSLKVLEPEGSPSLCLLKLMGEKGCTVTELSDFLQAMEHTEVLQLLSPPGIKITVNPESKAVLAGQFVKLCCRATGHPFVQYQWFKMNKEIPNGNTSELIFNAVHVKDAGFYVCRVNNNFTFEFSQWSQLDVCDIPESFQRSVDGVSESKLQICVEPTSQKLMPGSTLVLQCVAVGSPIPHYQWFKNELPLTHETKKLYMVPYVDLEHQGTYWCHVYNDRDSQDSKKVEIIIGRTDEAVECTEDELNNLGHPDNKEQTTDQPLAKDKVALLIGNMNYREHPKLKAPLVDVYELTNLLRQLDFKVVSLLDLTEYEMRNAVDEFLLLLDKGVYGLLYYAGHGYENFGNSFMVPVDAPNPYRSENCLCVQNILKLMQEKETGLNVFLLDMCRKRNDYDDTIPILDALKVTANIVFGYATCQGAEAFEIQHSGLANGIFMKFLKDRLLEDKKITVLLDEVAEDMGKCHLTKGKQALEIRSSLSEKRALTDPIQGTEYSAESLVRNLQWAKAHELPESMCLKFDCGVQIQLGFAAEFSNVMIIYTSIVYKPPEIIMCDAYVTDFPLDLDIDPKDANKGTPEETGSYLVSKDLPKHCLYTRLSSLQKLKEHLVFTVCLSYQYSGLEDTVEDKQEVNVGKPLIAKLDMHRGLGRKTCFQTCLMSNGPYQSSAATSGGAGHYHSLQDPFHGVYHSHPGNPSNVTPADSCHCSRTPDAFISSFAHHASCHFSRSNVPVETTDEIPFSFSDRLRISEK
Briefly: Inhibition of MALT1 in human OCI-LY3 cells assessed as reduction in Relb cleavage at 20 uM by Western blot analysis. The class given is cell-based. For orientation: In western blotting, separated proteins are transferred to a membrane and probed.

Experiment [29] addresses T6, Mucosa-associated lymphoid tissue lymphoma translocation protein 1 (Homo sapiens, UniProt Q9UDY8).
T6 sequence (Q9UDY8 whole entry): T5 sequence (whole entry)
The experiment is described as follows: Inhibition of recombinant LZ-fused MALT1 (340 to 789 residues) (unknown origin) using Ac-LRSR-AMC as substrate by fluorescence assay.

The test system of the next experiment is OCI-Ly1. The experiment is described as follows: Antiproliferative activity against human OCI-LY1 cells up to 20 uM. The class given is functional, cell-based.

Calls of active or inactive are those of the source. The calls are words filed in the database; no cut-off is given here.

T1 sequence (P07384 whole entry, looked up): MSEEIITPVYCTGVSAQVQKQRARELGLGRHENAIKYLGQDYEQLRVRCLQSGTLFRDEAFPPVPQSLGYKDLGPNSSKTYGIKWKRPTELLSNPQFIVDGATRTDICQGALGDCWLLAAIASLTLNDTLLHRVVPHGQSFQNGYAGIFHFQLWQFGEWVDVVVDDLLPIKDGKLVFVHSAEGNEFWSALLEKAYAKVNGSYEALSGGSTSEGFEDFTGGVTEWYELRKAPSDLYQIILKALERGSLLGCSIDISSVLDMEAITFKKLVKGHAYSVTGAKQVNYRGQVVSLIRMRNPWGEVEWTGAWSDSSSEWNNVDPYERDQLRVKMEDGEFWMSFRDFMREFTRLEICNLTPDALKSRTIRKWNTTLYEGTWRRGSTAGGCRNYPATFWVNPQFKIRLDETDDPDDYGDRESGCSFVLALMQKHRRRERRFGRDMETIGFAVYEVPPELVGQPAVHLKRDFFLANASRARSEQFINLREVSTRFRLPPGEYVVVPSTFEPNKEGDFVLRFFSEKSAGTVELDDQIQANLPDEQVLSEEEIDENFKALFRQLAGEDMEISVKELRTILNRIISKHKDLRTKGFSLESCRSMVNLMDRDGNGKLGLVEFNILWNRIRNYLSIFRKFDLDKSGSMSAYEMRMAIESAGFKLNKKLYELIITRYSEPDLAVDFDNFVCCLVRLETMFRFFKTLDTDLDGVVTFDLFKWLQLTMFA
T1 sequence (P17655 whole entry, looked up): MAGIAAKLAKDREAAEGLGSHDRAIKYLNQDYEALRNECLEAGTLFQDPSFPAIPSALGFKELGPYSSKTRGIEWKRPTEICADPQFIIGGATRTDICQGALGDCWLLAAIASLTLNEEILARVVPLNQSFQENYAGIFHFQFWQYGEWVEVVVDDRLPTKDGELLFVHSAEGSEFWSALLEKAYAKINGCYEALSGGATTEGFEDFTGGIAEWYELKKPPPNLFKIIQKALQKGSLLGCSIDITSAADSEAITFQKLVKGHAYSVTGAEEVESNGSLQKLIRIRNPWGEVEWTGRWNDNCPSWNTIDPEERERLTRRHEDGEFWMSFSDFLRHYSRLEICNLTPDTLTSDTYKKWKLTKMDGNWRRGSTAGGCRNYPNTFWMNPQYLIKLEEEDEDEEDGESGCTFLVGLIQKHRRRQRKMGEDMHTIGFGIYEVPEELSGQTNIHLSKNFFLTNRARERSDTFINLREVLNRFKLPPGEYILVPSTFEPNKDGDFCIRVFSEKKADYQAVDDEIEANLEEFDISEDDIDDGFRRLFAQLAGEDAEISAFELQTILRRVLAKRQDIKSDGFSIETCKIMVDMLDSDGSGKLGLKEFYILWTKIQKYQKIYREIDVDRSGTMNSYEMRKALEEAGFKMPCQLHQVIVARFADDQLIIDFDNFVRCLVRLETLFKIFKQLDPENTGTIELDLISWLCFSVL
Chain of Cathepsin S (Homo sapiens) (P25774 115-331 limits assumed): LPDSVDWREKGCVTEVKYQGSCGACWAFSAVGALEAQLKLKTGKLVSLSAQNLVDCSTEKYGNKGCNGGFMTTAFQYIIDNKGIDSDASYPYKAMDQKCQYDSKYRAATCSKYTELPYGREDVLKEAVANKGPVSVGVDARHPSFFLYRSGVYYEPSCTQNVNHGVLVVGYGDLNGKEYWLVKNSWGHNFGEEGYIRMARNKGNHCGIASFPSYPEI
Chain of Tryptase beta-2 (Homo sapiens) (P20231 whole entry): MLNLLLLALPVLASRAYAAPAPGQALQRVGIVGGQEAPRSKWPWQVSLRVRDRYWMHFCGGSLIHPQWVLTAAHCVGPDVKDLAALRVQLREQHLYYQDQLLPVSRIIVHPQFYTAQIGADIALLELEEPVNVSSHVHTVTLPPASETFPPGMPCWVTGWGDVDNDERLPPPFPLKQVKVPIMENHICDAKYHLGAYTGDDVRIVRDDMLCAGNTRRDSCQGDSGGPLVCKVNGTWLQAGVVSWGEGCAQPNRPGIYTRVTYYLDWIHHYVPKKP
Chain of Procathepsin L (Homo sapiens) (P07711 114-333 limits assumed): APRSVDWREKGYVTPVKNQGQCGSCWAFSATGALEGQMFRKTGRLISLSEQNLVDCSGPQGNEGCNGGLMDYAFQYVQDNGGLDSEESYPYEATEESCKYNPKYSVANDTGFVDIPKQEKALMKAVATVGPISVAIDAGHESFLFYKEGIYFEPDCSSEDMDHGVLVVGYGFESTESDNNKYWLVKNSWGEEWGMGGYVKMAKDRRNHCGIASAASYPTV

On to `CC(C)[C@H](NC(=O)c1ccc(Br)cc1)C(=O)N1CCCC[C@H]1C(=O)N[C@@H](CCCNC(=N)N)C(=O)CF`, for which, in the experiment with OCI-Ly3, the GI50 was found to be 0.46 µM. Further, the inhibition was 112% in experiment [1]; 98.2% in experiment [2]; 98.9% in experiment [3]; 36.2% in experiment [4]; 99.7% in experiment [5]; 86.3% in experiment [6]. For the same compound, the inhibition in experiment [7] came to 75.8%; against Trypsin (Homo sapiens) [8], 93.7%; in experiment [9] it was 31%; in experiment [10], 76%; in experiment [11], 79.7%; in experiment [12], 98.1%. Also, the inhibition in experiment [13] was 85.7%; in experiment [14], 32.1%; in experiment [15] it was 19.4%; against Trypsin (Homo sapiens) [16] it was 91%; in experiment [17], 3.4%; in [18] it was 25.9%. Moreover, the inhibition was 10.7% in experiment [19]; 68.7% in experiment [20]; 82.2% in experiment [21]; 4.6% in experiment [22]; 65% at Trypsin (Homo sapiens) [23]; 1% in experiment [24].

For the compound `CC(C)[C@H](NC(=O)c1ccc(Br)cc1)C(=O)N[C@@H](CO)C(=O)N[C@@H](CCCNC(=N)N)C(=O)CF`, the GI50 with OCI-Ly3 came out at 0.15 µM. Further, the inhibition worked out at 105% in experiment [1]; 100% in [2]; 89.7% in experiment [3]; 49.4% in experiment [4]; 100% in experiment [5]; 94.1% in experiment [6]. For the same compound, the inhibition was 41.8% in experiment [7]; 94.2% on Trypsin (Homo sapiens) [8]; 47.5% in experiment [9]; 99.8% in [10]; 99.5% in experiment [11]; 38.3% in experiment [12]. The inhibition turned out to be 11.2% in experiment [25]; 100% in experiment [13]; 58.4% in [14]; 1.1% in experiment [15]; 92.6% against Trypsin (Homo sapiens) [16]; 15.3% in experiment [17]. Moreover, the inhibition worked out at 98.5% in experiment [18]; 88.7% in experiment [19]; 28.8% in experiment [20]; 13% in experiment [26]; 99% in [21]; 29.8% in [27]. Further, the inhibition in [22] is 2.3%; at Trypsin (Homo sapiens) [23], 64%; in experiment [24], 6.5%.

Consider `CCC(=O)[C@H](CCCNC(=N)N)NC(=O)[C@@H]1CCCN1C(=O)[C@@H](NC(=O)[C@H](CC(C)C)NC(=O)OCc1ccccc1)C(C)C`, for which the inhibition result in experiment [28] was “inactive”. Moreover, in experiment [29], the inhibition constant (Ki) was above 5 µM. Besides, in the experiment with OCI-Ly3, the GI50 was above 20 µM. The outcome with OCI-Ly1 was inactive.

What is called GI50 is the concentration that inhibits growth by half. For orientation: inhibition means the change of the read-out against control, counted positive when it falls. As a reminder, the Ki is a dissociation constant, usually derived from enzyme kinetics or from competition with a known ligand.
